# Assay results taken from patent US20110183954A1, “TRICYCLIC 2,4-DIAMINO-L,3,5-TRIAZINE DERIVATIVES USEFUL FOR THE TREATMENT OF CANCER AND MYELOPROLIFERATIVE DISORDERS” (ASTRAZENECA AB, priority 2008, published 2011).
# pIC50: −log10 of the molar value.
# Assays:
# Format in all cases: biochemical
# [1] = biological target: T1, JAK1 (Homo sapiens, UniProt P23458); test: Method 1 (JAK1): mobility shift assay on Caliper LC3000 reader; conditions: 3.5 nM JAK1 enzyme, 5 mM ATP, 90 minutes, room temperature; read-out: IC50 (JAK inhibitory activity, Method 1 (JAK1))
# T1 construct: catalytic domain (amino acids 866-1154), GST-tagged, expressed in insect cells; GST; purchased Invitrogen; host or cells: insect cells
# Excerpt: (§1) Janus kinase 1 (JAK1) activity may be determined by measuring the kinase's ability to phosphorylate a tyrosine residue within a peptide substrate using a mobility shift assay on a Caliper LC3000 reader (Caliper, Hopkinton, Mass.), which measures fluorescence of the phosphorylated and unphosphorylated substrate and calculates a ratiometric value to determine percent turnover.
# To measure JAK1 kinase activity, a commercially available purified enzyme may be used. The enzyme may be a recombinant human, catalytic domain (amino acids 866-1154), GST-tagged, expressed in insect cells (Invitrogen, Carlsbad, Calif.). After incubation of the kinase with a FITC labeled JAK1 substrate, adenosine triphosphate (ATP), and MgCl2 for 90 minutes at room temperature, the kinase reaction may be stopped by the addition of 36 mM ethylenediaminetetraacetic acid (EDTA). The reaction may be performed in 384 well microtitre plates and the reaction products may be detected using the Caliper LC3000 Reader.
# [2] = biological target: T2, human JAK2 (Homo sapiens, UniProt O60674); test: Method 2 (JAK2): mobility shift assay on Caliper LC3000 reader, 5 mM ATP; set-up: human JAK2 (amino acids 831-1132, PLAZA database pAZB0359) expressed in insect cells; GST (N); made in house; host or cells: insect cells; conditions: 0.3 nM JAK2 enzyme, 90 minutes, read-out: IC50 (JAK inhibitory activity, Method 2 (JAK2))
# Excerpt: as §1, with “Alternatively, Janus” for “Janus”, “2 (JAK2)” for “1 (JAK1)”
# (§2) To measure JAK2 kinase activity, an in-house purified enzyme may be used. The enzyme may be a N-terminal GST-tagged, recombinant, human JAK2 (amino acids 831-1132, PLAZA database pAZB0359) expressed in insect cells. After incubation of the kinase with a FAM labeled SRCtide substrate, adenosine triphosphate (ATP), and MgCl2 for 90 minutes at room temperature, the kinase reaction may be stopped by the addition of 36 mM ethylenediaminetetraacetic acid (EDTA). The reaction may be performed in 384 well microtitre plates and the reaction products may be detected using the Caliper LC3000 Reader.
# Target sequence in this assay (O60674 831-1132): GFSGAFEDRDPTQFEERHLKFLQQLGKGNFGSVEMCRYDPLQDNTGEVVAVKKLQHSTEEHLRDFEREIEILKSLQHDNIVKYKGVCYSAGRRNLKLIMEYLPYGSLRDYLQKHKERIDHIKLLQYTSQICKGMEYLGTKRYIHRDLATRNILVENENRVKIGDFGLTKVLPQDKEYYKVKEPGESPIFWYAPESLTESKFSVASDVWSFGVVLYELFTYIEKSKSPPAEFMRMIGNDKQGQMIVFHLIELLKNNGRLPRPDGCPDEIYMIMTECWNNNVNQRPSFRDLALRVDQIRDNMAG
# [3] = biological target: T2, human JAK2; test: Method 1 (JAK2): Amplified Luminescent Proximity Assay (Alphascreen); set-up: His6 (C); purchased Upstate Biotechnology; host or cells: baculovirus in Sf21 cells; conditions: 150 pM JAK2 enzyme, 5 mM ATP, 60 minutes, room temperature, read-out: IC50 (JAK inhibitory activity, Method 1 (JAK2))
# Excerpt: JAK2 kinase activity may be determined by measuring the kinase's ability to phosphorylate synthetic tyrosine residues within a generic polypeptide substrate using an Amplified Luminescent Proximity Assay (Alphascreen) technology (PerkinElmer, 549 Albany Street, Boston, Mass.).
# To measure JAK2 kinase activity, a commercially available purified enzyme may be used. The enzyme may be a C-terminal His6-tagged, recombinant, human JAK2, amino acids 808-end, (Genbank Accession number NM 004972) expressed by baculovirus in Sf21 cells (Upstate Biotechnology MA). After incubation of the kinase with a biotinylated substrate and adenosine triphosphate (ATP) for 60 minutes at room temperature, the kinase reaction may be stopped by the addition of 30 mM ethylenediaminetetraacetic acid (EDTA). The reaction may be performed in 384 well microtitre plates and the reaction products may be detected with the addition of streptavidin coated Donor Beads and phosphotyrosine-specific antibodies coated Acceptor Beads using the EnVision Multilabel Plate Reader after an overnight incubation at room temperature.
# Target sequence in this assay (O60674 808-1132 limits assumed): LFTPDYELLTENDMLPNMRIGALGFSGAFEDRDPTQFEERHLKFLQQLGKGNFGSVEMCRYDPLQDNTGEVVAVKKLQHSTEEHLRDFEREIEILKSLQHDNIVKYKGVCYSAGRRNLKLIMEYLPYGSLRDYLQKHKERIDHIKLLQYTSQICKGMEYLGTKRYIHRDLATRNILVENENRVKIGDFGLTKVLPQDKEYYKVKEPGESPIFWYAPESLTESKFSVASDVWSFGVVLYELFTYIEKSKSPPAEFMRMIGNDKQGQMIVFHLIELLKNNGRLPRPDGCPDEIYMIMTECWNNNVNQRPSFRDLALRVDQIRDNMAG
# [4] = biological target: T2, human JAK2; test: Method 3 (JAK2): mobility shift assay on Caliper LC3000 reader, 15 μM ATP; set-up: human JAK2 (amino acids 831-1132, PLAZA database pAZB0359) expressed in insect cells; GST (N); made in house; host or cells: insect cells; conditions: 0.5 nM JAK2 enzyme, 90 minutes, read-out: IC50 (JAK inhibitory activity, Method 3 (JAK2))
# Procedure: as §1, with “2 (JAK2)” for “1 (JAK1)”, “was” for “may be”
# as §2, with “enzyme was” for “enzyme may be”, “enzyme was” for “enzyme may be a”, “reaction was” for “reaction may be”, “products were” for “products may be”
# Target sequence in this assay (O60674 831-1132): as the sequence (O60674 831-1132) above
# T1 sequence (P23458 866-1154): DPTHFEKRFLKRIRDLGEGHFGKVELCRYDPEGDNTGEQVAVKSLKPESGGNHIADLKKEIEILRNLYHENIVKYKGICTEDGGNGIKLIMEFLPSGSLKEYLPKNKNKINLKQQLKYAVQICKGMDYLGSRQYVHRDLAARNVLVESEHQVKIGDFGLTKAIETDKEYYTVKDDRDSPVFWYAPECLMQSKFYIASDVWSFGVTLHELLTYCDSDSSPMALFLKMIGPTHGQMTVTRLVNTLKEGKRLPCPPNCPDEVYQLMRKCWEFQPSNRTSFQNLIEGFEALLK
pIC50 [1],pIC50 [2],pIC50 [3],pIC50 [4],SMILES
5.99,5.77,,,"Cn1cnc(Nc2nc(NC(CNC(=O)OC(C)(C)C)c3ccc(F)cc3)nc(N3CCOCC3)n2)c1 (single isomer, unassigned) [Example 24b, tert-Butyl [2-(4-fluorophenyl)-2-({4-[(1-methyl-1H-imidazol-4-yl)amino]-6-morpholin-4-yl-1,3,5-triazin-2-yl}amino)ethyl]carbamate]"
5.70,6.02,,,"Cn1cnc(Nc2nc(NC(c3ccc(F)cc3)C3CCCC3)nc(N3CCOCC3)n2)c1 (centres unmarked) [Example 27, N-[Cyclopentyl(4-fluorophenyl)methyl]-N′-(1-methyl-1H-imidazol-4-yl)-6-morpholin-4-yl-1,3,5-triazine-2,4-diamine]"
7.82,7.68,,,"[2H]C1([2H])OC([2H])([2H])C([2H])([2H])N(c2nc(Nc3cn(C)cn3)nc(NC(C)c3ncc(F)cc3F)n2)C1([2H])[2H] (single isomer, unassigned) [Example 11b, N-[1-(3,5-Difluoropyridin-2-yl)ethyl]-N′-(1-methyl-1H-imidazol-4-yl)-6-(^2H8)morpholin-4-yl-1,3,5-triazine-2,4-diamine]"
7.19,,> 8.52,,"C[C@H](Nc1nc(Nc2cn(C)cn2)nc(N2CCOCC2)n1)c1ccc(F)cc1 [Example 30, N-[(1S)-1-(4-fluorophenyl)ethyl]-N′-(1-methyl-1H-imidazol-4-yl)-6-morpholin-4-yl-1,3,5-triazine-2,4-diamine]"
,,,> 8.52,"[2H]C([2H])([2H])n1cnc(Nc2nc(NC(C)c3ncc(F)cc3F)nc(N3CCOCC3)n2)c1 (single isomer, unassigned) [Example 12b, N-[1-(3,5-Difluoropyridin-2-yl)ethyl]-N′-[1-(^2H3)methyl-1H-imidazol-4-yl]-6-morpholin-4-yl-1,3,5-triazine-2,4-diamine]"
,,,6.74,"[2H]C([2H])([2H])n1cnc(Nc2nc(NC(C)c3ncc(F)cc3F)nc(N3C([2H])([2H])C([2H])([2H])OC([2H])([2H])C3([2H])[2H])n2)c1 (single isomer, unassigned) [Example 13a, N-[1-(3,5-Difluoropyridin-2-yl)ethyl]-N′-[1-(^2H3)methyl-1H-imidazol-4-yl]-6-(^2H8)morpholin-4-yl-1,3,5-triazine-2,4-diamine]"
4.52,< 4.52,,,"Cn1cnc(Nc2nc(NC(c3ccc(F)cc3)c3nccn3C)nc(N3CCOCC3)n2)c1 (single isomer, unassigned) [Example 25b, N-[(4-Fluorophenyl)(1-methyl-1H-imidazol-2-yl)methyl]-N′-(1-methyl-1H-imidazol-4-yl)-6-morpholin-4-yl-1,3,5-triazine-2,4-diamine]"
6.11,6.01,,,"[2H]C1([2H])OC([2H])([2H])C([2H])([2H])N(c2nc(Nc3cn(C)cn3)nc(NC(C)c3ncc(F)cc3F)n2)C1([2H])[2H] (single isomer, unassigned) [Example 11a, N-[1-(3,5-Difluoropyridin-2-yl)ethyl]-N′-(1-methyl-1H-imidazol-4-yl)-6-(^2H8)morpholin-4-yl-1,3,5-triazine-2,4-diamine]"
7.08,7.14,,,"Cn1cnc(Nc2nc(NC(CNC(=O)OC(C)(C)C)c3ccc(F)cc3)nc(N3CCOCC3)n2)c1 (single isomer, unassigned) [Example 24a, tert-Butyl [2-(4-fluorophenyl)-2-({4-[(1-methyl-1H-imidazol-4-yl)amino]-6-morpholin-4-yl-1,3,5-triazin-2-yl}amino)ethyl]carbamate]"
6.29,,8.40,,"C[C@H](Nc1nc(Nc2cn(C)cn2)nc(N2CCOCC2)n1)c1ccc(Cl)cc1 [Example 29, N-[(1S)-1-(4-Chlorophenyl)ethyl]-N′-(1-methyl-1H-imidazol-4-yl)-6-morpholin-4-yl-1,3,5-triazine-2,4-diamine]"
,,,> 8.52,"[2H]C([2H])([2H])n1cnc(Nc2nc(NC(C)c3ncc(F)cc3F)nc(N3C([2H])([2H])C([2H])([2H])OC([2H])([2H])C3([2H])[2H])n2)c1 (single isomer, unassigned) [Example 13b, N-[1-(3,5-Difluoropyridin-2-yl)ethyl]-N′-[1-(^2H3)methyl-1H-imidazol-4-yl]-6-(^2H8)morpholin-4-yl-1,3,5-triazine-2,4-diamine]"
,,,6.86,"[2H]C([2H])([2H])n1cnc(Nc2nc(NC(C)c3ncc(F)cc3F)nc(N3CCOCC3)n2)c1 (single isomer, unassigned) [Example 12a, N-[1-(3,5-Difluoropyridin-2-yl)ethyl]-N′-[1-(^2H3)methyl-1H-imidazol-4-yl]-6-morpholin-4-yl-1,3,5-triazine-2,4-diamine]"
